Test [1] concerns the target T1, PH-domain of CNKSR1 (Homo sapiens, UniProt Q969H4).
T1 sequence (Q969H4 403-502 limits assumed): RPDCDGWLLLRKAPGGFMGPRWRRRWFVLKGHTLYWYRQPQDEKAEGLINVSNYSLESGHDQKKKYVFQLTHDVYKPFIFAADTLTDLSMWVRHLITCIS
Kind of test: SPR binding (Biacore 2000) to CNKSR1 PH-domain, initial hits. The note with it: Table 5. On the procedure: In embodiments, a homology model for the PH-domain of CNSKR1 based on known PH-domain crystal structures can be developed. The docking program PHuDock® can be used to identify potential inhibitors of CNKSR1. […] The binding of the compounds to the expressed PH-domain of CNKSR1 (KDobs) can be measured by surface plasmon resonance (SPR) spectroscopy.
Other docking was performed using modeling algorithms with state-of-the-art commercial drug discovery software (Schrodinger suite). […] Additionally, ligand-based approaches provided an alternative to structure based drug discovery. Ligand-based virtual screening methodologies can take into account shape and electrostatics (like ROCS) and the pharmacophoric features (acceptor, donor, hydrophobic, aromatic, etc.) of its functional groups. […] SPR interaction analyses of all other compounds was undertaken using a Biacore T100 with Control and Evaluation software kit.
(In SPR one partner is held on a chip, and binding of the other changes the refractive index at the surface.)

Test [2] addresses T2, PH-domain of AKT (Homo sapiens, UniProt P31749).
T2 construct: made in house
Kind of test: SPR binding to expressed PH-domain of AKT. On the procedure:
(§1) In embodiments, the binding of identified compounds to the crystal structures of other PH-domain signaling proteins, AKT, PDPK1, Btk, and Tiam1 can be predicted. In such embodiments, the Kds exceed about 100 μM. In other embodiments, SPR can measure the binding of identified compounds to the expressed PH-domains of AKT, PDPK1 and Tiam1. […] Thus, the identified compounds appear have, at least, about 50 to about 100 fold selectivity for CNKSR1 compared to the other PH-domains studied.
(§2) A commercially available docking package, GOLD (GOLD [3.2], CCDC: Cambridge, UK, 2007) was used to evaluate the docking of compounds 1-7 into the binding pocket, see e.g. Table 5. Other docking was performed using modeling algorithms with state-of-the-art commercial drug discovery software (Schrodinger suite). GLIDE was chosen as the docking algorithm used to select and optimize compounds, providing a GlideScore as a rough estimate of binding affinity that was used to rank and select the best compounds. Additionally, ligand-based approaches provided an alternative to structure based drug discovery. Ligand-based virtual screening methodologies can take into account shape and electrostatics (like ROCS) and the pharmacophoric features (acceptor, donor, hydrophobic, aromatic, etc.) of its functional groups. […]

In test [3] the test system is PH-domain of Tiam1. The experiment in a line: SPR binding to expressed PH-domain of Tiam1. On the procedure:
as §1, §2

Test [4] has as its system wt-KRAS NSCLC cell lines. The experiment in a line: Screening against NSCLC cell line panel, wt-KRAS lines. Type of test: cell-based. The note with it: Table 6, mean of 3 wt-KRAS lines; read-out: NSCL cell line cytotoxicity IC50 wt-KRAS. On the procedure: The isogenic KRAS lines harboring G12D, G12C, and G12V were obtained from Horizon Discovery labs on a one year lease. These cells were cultured in McCoys media with 10% FBS to 80% confluency. Cells were then released from flasks via trypsinization and plated into 96-well plates at an initial density range of 2000 cells per well. Cells were allowed 24 hours to attach, and then the agents were added to the culture media at a range of concentrations from 0-100 μM. Cells were incubated for 72 hours with the drugs, and then viability was assessed using an MTS viability assay. Cells were exposed to MTS reagent (Promega) dissolved in PBS (Hyclone) at a concentration of 200 μL reagent/mL media for 2 hours. Absorbance was then read at 490 nm, and viability was expressed as a percentage normalized between the negative control (no cells plated) and the condition of cells with no drug added (100% viability) normalized as the upper limit of viability.
Our panel of 30 cell lines and an extensive characterization were obtained from Dr. John Minna (UTSW). All cell lines were cultured in RPMI 1640 with 10% FBS. Cells were treated with concentrations of agents at concentrations 0.01 to 50 μM and evaluated as described above. IC50's were determined using Excelfit.

For test [5], the system named is A549 (KRAS mutant cell line). The experiment in a line: Proliferation Assay A549. Type of test: cell-based. The note with it: Homo sapiens, N = 2 experiments. In a few lines:
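Cells plated 2000 per well, allowed 24 h to attach, then exposed 72 h to agents (0-100 μM for isogenic lines; 0.01 to 50 μM for the RPMI 1640/10% FBS-cultured 30-line NSCLC panel). MTS read at 490 nm after 2 h, normalized to no-cell and no-drug controls; IC50 from curve fitting.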

A value given as a limit tells only on which side of the number the result lay.

T2 sequence (P31749 5-108 limits assumed): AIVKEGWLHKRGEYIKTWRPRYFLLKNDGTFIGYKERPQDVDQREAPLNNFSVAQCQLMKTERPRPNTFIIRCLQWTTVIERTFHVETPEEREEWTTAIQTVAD

By Kd is commonly meant a measure of binding affinity in units of concentration. A lower Kd goes with a tighter complex. The IC50 is the point on the concentration scale where inhibition reaches its midpoint. For the compound `CCOC(=O)Cc1nn(Cc2nc(-c3ccc(C)cc3)cs2)c(=O)c2ccccc12` [Compound 7], binding in test [1] was characterised by a dissociation constant (Kd) of 1.8 ± 0.6 µM. In test [2], the “SPR binding to PH-domain of AKT” value is “No measurable binding”. In addition, the “SPR binding to PH-domain of Tiam1” value in test [3] was “No measurable binding”. Further, the IC50 in test [4] is more than 100 µM; in test [5] it was 15 µM.

The values are drawn from patent publication US9340532B2, “Methods and compositions for inhibiting CNKSR1” (PHUSIS THERAPEUTICS, INC., priority 2012, dated 2016).
